{"source": "patent EP0038251A1", "about": "“Derivatives of osides, their preparation and their biological applications” (ANVAR Agence Nationale de Valorisation de la Recherche, priority 1980, dated 1981)", "tested_on": "hémolysines anti-B", "test": "Neutralisation of anti-B haemolysins: inhibition of one agglutinating dose of an anti-B test serum (European Pharmacopoeia techniques)", "type": "biochemical", "conditions": "dilution 1/5 of a 10 mg/ml solution", "description": "On utilise une solution à 10 mg/ml du produit de formule XXVI."}
{"smiles": "C[C@@H]1O[C@@H](O[C@H]2[C@H](OCCCOCCCN)O[C@H](CO)[C@H](O)[C@@H]2O[C@H]2O[C@H](CO)[C@H](O)[C@H](O)[C@H]2O)[C@@H](O)[C@H](O)[C@@H]1O", "note": "[trisaccharide XXVI]", "values": [{"measurement": "inhibition d'une dose agglutinante d'un sérum-test anti-B", "result": "inhibition totale"}]}
